# In article PMC12678337, “EAR-20 peptide, a novel NMDA receptor positive allosteric modulator” (Frontiers in Pharmacology, 2025):
# Several values for one entry are separate records, joined by “and”; a condition that tells them apart may be missing. Equal entries are not always repeated. No end group written: not given here.
# Columns and labels:
# GluN1-GluN2B [1] = molecular target: T1, GluN1-GluN2B (Rattus norvegicus, UniProt P35439+Q00960); format: cell-based
# T1 construct: GFP (N); expressed in transfected cells; host or cells: HEK-293T
# GluN1-GluN2A [2] = molecular target: T2, GluN1-GluN2A (Rattus norvegicus, UniProt P35439+Q00959); format: cell-based
# T2 construct: GFP (N); expressed in transfected cells; host or cells: HEK-293T (single-channel: HEK293)
# GluN1-GluN2A [3] = molecular target: T2, GluN1-GluN2A; format: cell-based; remark: listed apart in the source
# GluN1-GluN2B [4] = molecular target: T1, GluN1-GluN2B; format: cell-based; remark: listed apart in the source
# GluN1-GluN2C = molecular target: T3, GluN1-GluN2C (Rattus norvegicus, UniProt P35439+Q00961); format: cell-based
# T3 construct: HA (N); expressed in transfected cells; host or cells: HEK-293T
# GluN1-GluN2D = molecular target: T4, GluN1-GluN2D (Rattus norvegicus, UniProt P35439+Q62645); format: cell-based
# T4 construct: HA (N); expressed in transfected cells; host or cells: HEK-293T
# GluN1-GluN2A [5] = molecular target: T2, GluN1-GluN2A; test: cell-based
# GluN1-GluN2B [6] = molecular target: T1, GluN1-GluN2B; test: cell-based
# GluN1/GluN2A-V820I = molecular target: T5, GluN1/GluN2A-V820I (Rattus norvegicus, UniProt P35439+Q00959, V820I); format: cell-based
# T5 construct: GFP (N); expressed in transfected cells; host or cells: HEK-293T
# T1 sequence (Q00960 27-1482, other chains not shown): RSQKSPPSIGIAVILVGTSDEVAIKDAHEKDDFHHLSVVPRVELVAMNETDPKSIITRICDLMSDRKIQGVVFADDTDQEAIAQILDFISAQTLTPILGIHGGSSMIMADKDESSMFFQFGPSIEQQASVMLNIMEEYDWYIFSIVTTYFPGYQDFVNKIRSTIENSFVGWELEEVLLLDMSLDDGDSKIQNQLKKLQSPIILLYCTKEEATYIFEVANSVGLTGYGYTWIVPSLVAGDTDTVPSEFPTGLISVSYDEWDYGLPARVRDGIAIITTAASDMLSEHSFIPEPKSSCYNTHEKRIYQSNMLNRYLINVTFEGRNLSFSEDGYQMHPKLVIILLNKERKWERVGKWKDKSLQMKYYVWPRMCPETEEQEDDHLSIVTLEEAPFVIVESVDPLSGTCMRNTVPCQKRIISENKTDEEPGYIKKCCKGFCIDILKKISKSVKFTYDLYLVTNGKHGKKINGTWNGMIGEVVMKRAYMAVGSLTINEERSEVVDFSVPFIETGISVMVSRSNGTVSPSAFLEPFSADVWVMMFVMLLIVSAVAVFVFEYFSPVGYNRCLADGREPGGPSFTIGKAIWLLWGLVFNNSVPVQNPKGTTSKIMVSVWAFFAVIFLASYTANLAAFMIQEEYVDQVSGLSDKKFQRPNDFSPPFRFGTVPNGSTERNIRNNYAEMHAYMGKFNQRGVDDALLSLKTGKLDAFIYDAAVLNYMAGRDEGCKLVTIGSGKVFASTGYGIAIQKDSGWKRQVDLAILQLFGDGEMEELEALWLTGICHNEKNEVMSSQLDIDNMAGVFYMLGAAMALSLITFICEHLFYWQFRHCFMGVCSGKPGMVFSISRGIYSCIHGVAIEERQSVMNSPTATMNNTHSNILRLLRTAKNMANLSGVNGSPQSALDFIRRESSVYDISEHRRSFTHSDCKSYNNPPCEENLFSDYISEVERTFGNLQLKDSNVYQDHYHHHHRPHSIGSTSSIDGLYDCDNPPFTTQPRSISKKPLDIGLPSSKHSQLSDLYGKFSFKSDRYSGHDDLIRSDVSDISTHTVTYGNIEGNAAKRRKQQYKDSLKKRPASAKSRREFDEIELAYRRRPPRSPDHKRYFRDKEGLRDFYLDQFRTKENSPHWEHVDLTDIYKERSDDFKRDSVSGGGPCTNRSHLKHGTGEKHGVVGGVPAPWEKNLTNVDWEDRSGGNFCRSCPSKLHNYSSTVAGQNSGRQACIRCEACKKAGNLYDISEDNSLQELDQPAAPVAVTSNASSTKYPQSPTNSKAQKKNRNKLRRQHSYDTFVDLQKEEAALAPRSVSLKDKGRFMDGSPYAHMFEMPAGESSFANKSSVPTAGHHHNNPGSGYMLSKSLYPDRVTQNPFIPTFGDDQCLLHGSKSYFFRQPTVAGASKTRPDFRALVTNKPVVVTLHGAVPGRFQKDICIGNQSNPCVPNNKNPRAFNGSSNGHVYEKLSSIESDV
# T3 sequence (Q00961 20-1237, other chains not shown): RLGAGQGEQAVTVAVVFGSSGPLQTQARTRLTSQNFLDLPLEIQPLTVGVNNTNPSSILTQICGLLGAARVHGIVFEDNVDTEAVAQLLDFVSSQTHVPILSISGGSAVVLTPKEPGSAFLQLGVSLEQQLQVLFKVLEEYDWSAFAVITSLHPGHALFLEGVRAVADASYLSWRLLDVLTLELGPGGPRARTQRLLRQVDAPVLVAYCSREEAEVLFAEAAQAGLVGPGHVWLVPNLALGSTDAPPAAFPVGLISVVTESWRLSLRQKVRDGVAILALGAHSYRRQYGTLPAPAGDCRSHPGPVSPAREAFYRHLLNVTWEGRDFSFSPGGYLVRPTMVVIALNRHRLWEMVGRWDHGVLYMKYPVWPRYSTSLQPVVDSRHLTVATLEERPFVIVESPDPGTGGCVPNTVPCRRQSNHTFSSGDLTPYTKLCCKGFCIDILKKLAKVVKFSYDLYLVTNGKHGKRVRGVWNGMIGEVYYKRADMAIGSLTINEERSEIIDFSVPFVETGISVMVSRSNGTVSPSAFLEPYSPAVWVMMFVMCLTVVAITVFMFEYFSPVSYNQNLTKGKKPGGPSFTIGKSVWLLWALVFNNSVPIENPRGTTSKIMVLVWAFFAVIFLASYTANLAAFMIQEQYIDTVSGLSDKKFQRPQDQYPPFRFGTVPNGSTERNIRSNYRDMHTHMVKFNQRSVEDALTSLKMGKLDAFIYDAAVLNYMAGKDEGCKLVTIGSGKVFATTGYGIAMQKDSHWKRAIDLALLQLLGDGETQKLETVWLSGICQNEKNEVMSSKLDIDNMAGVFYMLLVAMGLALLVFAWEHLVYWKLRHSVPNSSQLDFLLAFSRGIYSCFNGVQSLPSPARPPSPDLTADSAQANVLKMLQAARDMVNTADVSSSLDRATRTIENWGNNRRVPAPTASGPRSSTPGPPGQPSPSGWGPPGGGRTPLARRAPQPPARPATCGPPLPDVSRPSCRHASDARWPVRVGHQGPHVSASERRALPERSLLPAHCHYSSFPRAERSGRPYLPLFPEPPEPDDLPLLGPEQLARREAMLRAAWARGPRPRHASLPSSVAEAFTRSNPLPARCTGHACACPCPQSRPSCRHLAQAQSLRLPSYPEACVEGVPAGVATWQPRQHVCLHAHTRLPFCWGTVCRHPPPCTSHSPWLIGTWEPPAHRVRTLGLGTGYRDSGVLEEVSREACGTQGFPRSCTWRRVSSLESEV
# T2 sequence (Q00959 23-1464, other chains not shown): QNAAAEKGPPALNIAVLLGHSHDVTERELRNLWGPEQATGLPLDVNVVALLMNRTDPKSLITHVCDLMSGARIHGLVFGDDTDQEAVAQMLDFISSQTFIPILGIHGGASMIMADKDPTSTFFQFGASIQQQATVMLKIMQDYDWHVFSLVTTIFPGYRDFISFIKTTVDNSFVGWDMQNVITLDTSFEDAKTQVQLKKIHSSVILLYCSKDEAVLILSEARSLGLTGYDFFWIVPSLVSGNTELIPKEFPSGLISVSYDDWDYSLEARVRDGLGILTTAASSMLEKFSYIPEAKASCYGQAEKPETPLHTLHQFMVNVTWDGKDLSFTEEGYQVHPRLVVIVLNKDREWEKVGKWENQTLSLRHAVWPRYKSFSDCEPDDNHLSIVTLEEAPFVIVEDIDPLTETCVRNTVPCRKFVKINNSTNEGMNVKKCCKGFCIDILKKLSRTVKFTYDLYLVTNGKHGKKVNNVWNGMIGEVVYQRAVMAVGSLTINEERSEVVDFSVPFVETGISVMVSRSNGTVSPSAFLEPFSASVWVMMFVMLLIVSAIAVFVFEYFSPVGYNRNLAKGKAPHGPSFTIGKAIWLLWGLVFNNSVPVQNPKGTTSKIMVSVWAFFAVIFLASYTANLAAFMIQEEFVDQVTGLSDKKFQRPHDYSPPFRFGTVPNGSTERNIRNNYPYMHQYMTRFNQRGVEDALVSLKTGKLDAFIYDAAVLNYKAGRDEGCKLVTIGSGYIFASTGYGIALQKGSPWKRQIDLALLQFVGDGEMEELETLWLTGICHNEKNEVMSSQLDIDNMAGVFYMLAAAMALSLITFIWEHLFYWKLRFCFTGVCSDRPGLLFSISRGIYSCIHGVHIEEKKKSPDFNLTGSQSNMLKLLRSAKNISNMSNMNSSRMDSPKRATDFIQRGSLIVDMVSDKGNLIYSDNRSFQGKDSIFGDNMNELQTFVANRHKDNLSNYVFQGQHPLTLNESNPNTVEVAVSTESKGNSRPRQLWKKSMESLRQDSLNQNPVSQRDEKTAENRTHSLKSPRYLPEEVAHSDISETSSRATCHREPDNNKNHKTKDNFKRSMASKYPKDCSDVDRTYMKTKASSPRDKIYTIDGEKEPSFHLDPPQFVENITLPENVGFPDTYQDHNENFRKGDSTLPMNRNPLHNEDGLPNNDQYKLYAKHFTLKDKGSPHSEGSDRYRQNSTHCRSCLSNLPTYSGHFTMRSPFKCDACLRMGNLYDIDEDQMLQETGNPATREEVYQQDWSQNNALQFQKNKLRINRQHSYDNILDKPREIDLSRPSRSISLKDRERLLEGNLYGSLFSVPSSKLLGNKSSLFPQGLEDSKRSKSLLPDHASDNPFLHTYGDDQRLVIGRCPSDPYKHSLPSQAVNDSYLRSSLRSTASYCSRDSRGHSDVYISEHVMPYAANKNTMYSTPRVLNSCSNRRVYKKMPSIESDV
sequence,measurement,setting,value
KLGMRSELQIDNDQDAD [EAR-20],maximal agonist activity relative to glutamate plus glycine,GluN1-GluN2B [1],12.18% ± 6.9%
same,"response in the presence of glutamate, % of glutamate plus glycine response",GluN1-GluN2B [1],38.33% ± 17.1%
same,"response in the presence of glycine, % of glutamate plus glycine response",GluN1-GluN2B [1],43.22% ± 18.1%
same,agonistic activity relative to glutamate plus glycine,GluN1-GluN2A [2],13.31% ± 6.5%
same,peak current potentiation,GluN1-GluN2A [3],15.68% ± 6.19% and 15.68% ± 6.16%
same,steady-state current potentiation,GluN1-GluN2A [3],154.3% ± 19.0% and 154.3% and 153.3% ± 19.9%
same,peak current potentiation,GluN1-GluN2B [4],102.6% ± 24.02%
same,potentiation by EAR-20,GluN1-GluN2B [4],136.8% ± 19.6%
same,steady-state current potentiation,GluN1-GluN2B [4],137.9% ± 21.0% and 137.9% and 143.7% ± 26.8%
same,peak current potentiation,GluN1-GluN2C,−8.04% ± 7.48%
same,steady-state current potentiation,GluN1-GluN2C,23.31% ± 7.6% and ~25%
same,peak current potentiation,GluN1-GluN2D,4.97% ± 2.63%
same,steady-state current potentiation,GluN1-GluN2D,102.45% ± 11.1%
same,EC50,GluN1-GluN2A [5],88.7 µM
same,EC50,GluN1-GluN2B [6],42.2 µM
same,steady-state potentiation,GluN1/GluN2A-V820I,146.6% ± 37.8%
